From article PMC8389037, “Design, Synthesis and Antifungal Activity of Stapled Aurein1.2 Peptides” (Antibiotics, 2021)
≈ marks a conversion by molar mass, not a printed value. Where a SMILES comes first, the peptide text is derived from it. Bridges are numbered along the chain shown (N, C = ends). [ ]: non-standard residue; d: D form. S5 = C=CCCC[C@](C)(N)C(=O)O

Columns and labels:
C. albicans 901 = experiment: microbe, parasite or virus in culture
Procedure: (§1) The in vitro antifungal activities of the target peptides were evaluated according to protocols from the CLSI. The broth microdilution method was used to determine the minimum inhibitory concentration (MIC) of the target peptides in 96-well plates. Fluconazole was used as a reference drug.
(§2) Clinical isolates of C. albicans SC5314, 901, 904, C. tropicalis ATCC20026 and clinical isolate 895, C. glabrata ATCC1182 and clinical isolate 896, C. krusei ATCC2340, and C. parapsilosis ATCC22010 are from the collection library in the Drug Discovery and Development Center, Naval Medical University, Shanghai, China. C. auris clinical isolates are provided by Linqi Wang (Institute of Microbiology, Chinese Academy of Sciences) and Changbin Chen (Institut Pasteur of Shanghai, Chinese Academy of Sciences). All strains were cultured in YPD (1% yeast extract, 2% peptone, and 2% glucose) liquid medium overnight at 30 °C with shaking at 220 rpm.
(§3) The MICs of chemicals against all strains were determined by the micro broth dilution method according to the Clinical and Laboratory Standards Institute (Wayne PA, Reference Method for Broth Dilution Antifungal Susceptibility Testing of yeasts, approved Standard M27-A3, 3 rd ed; Clinical and Laboratory Standards Institute (CLSI): USA, 2008). The initial concentration of fungal suspension in RPMI 1640 medium was 3–5 × 10^3 colonies forming unit (CFU)/mL, which was added to 96-well plates. Peptides were prepared in dimethyl sulfoxide (DMSO) with an initial stored concentration of 6.4 mg/mL. Serial dilutions were made based on the CLSI M27 guide to obtaining the final concentrations ranging from 0.125 to 64 μg/mL for fluconazole and 0.25 to 128 μg/mL for peptides […]. The plates were incubated at 30 °C for 48 h. Optical density was measured at 630 nm, and background optical densities were subtracted from that of each well. The definition of MIC is the lowest concentration at which 80% of tested strains cannot grow.

C. albicans 904 = experiment: microbe, parasite or virus in culture
Procedure: as §1, §2, §3

C. albicans SC5314 = experiment: microbe, parasite or virus in culture
Procedure: as §1, §2, §3

C. auris 918 = experiment: microbe, parasite or virus in culture
Procedure: as §1, §2, §3

C. auris 919 = experiment: microbe, parasite or virus in culture
Procedure: as §1, §2, §3

C. glabrata 896 = experiment: microbe, parasite or virus in culture
Procedure: as §1, §2, §3

C. glabrata ATCC 1182 = experiment: microbe, parasite or virus in culture
Procedure: as §1, §2, §3

C. krusei ATCC 2340 = experiment: microbe, parasite or virus in culture
Procedure: as §1, §2, §3

[1] = system: C. parapsilosis ATCC 22010; experiment: microbe, parasite or virus in culture
Procedure: as §1, §2, §3

C. tropicalis 895 = experiment: microbe, parasite or virus in culture
Procedure: as §1, §2, §3

C. tropicalis ATCC 20026 = experiment: microbe, parasite or virus in culture
Procedure: as §1, §2, §3

[2] = Helicity by circular dichroism; assay type: physicochemical; conditions: CD, 50 μM peptide in phosphate buffer/trifluoroethanol (7:3), 20 °C, calculated on [θ]222
Procedure: We use circular dichroism (CD) spectroscopy to probe the structural changes of Aurein1.2. According to the formula for calculating the helix reported in the previous relevant literature, we calculated the helicities of Aurein1.2 and the stapled peptides.
Figure 3 CD spectra of Aurein1.2 and its analogues. The peptides were dissolved in a solution of phosphate buffer and trifluoroethanol (7:3) and reached a concentration of 50 μM. The helicities of these peptides were calculated on the [θ]222. TEXT PRINTED IN THE PICTURE: Aurein1.2: helicity: 56.6% | Sau-1: helicity: 60.2% | Sau-2: helicity: 52.5% | Sau-3: helicity: 72.3% | Sau-4: helicity: 73.5% | Sau-5: helicity: 61.0% | Sau-6: helicity: 49.9% | Sau-7: helicity: 65.0% | Sau-8: helicity: 83.1% | Sau-9: helicity: 67.8%
The linear peptide and the stapled Aurein1.2 peptides were dissolved to form a sample with a concentration of 50 μM. The solvent consists of phosphate-buffered solution and trifluoroethanol (7:3). We used a […] quartz tube to obtain CD spectra on a Jasco-715 spectrophotometer at 20 °C. The measurement parameters were set up as follows: wavelength, 190–255 nm; speed, 20 nm min^−1; step resolution, 1.0 nm. And we accumulated the data twice. All spectral data were subtracted from the background. […] The helicity of each peptide was calculated according to the equation in the literature.

chymotrypsin = experiment: Chymotrypsin digestion assay (proteolytic stability); conditions: chymotrypsin 10 ng/µL in PBS 50 mM, 2 mM CaCl2, pH 7.4, room temperature; 130 µL of 1 mM DMSO peptide stock + 910 µL enzyme; sampled 0, 0.5, 1.5, 2, 4.5 h; HPLC at 214 nm
Procedure: Their susceptibility toward chymotrypsin degradation was tested in pH 7.4 PBS buffer at room temperature, containing 2 mM of CaCl2, and the percentages of remaining peptides were determined by HPLC. […] The corresponding HPLC charts for the determination of peptide residues are in the Supplementary Material.
Figure 4 Proteolytic stability of Aurein1.2, Sau-1, Sau-2, Sau-5, and Sau-9. They were dissolved in chymotrypsin solution (10 ng/μL, 50 mM, containing 2 mM of CaCl2, pH = 7.4). The percentages of the remaining peptides were monitored by HPLC.
Aurein1.2, Sau-1, Sau-2, Sau-5, and Sau-9, were dissolved in dimethyl sulfoxide to prepare a reserve solution with a concentration of 1 mM. Chymotrypsin was dissolved in PBS buffer (50 mM, containing 2 mM of CaCl2, pH = 7.4) to obtain a final concentration of 10 ng/µL. Then the 130 µL peptide solutions were incubated with 910 µL of chymotrypsin solution at room temperature. Then 130 µL of digestion mixture was taken at 0, 0.5, 1.5, 2 or 4.5 h, and then quenched with 50 µL of hydrochloric acid (1 mM). High-performance liquid chromatography (HPLC) was used to detect the residues of linear peptides and stapled Aurein1.2 peptides at 214 nm at a different time.

Molecule	proteolytic stability, remaining peptide (chymotrypsin)	Minimum inhibitory concentration (MIC) (C. albicans 901; 901, 48 h) [µg/mL]	Minimum inhibitory concentration (MIC) (C. albicans 904; 904, 48 h) [µg/mL]	Minimum inhibitory concentration (MIC) (C. albicans SC5314; SC5314, 48 h) [µg/mL]	Minimum inhibitory concentration (MIC) (C. auris 918; 918, 48 h) [µg/mL]	Minimum inhibitory concentration (MIC) (C. auris 919; 919, 48 h) [µg/mL]	Minimum inhibitory concentration (MIC) (C. glabrata 896; 896, 48 h) [µg/mL]	Minimum inhibitory concentration (MIC) (C. glabrata ATCC 1182; ATCC 1182, 48 h) [µg/mL]	Minimum inhibitory concentration (MIC) (C. krusei ATCC 2340; ATCC 2340, 48 h) [µg/mL]	Minimum inhibitory concentration (MIC) ([1]; ATCC 22010, 48 h) [µg/mL]	Minimum inhibitory concentration (MIC) (C. tropicalis 895; 895, 48 h) [µg/mL]	Minimum inhibitory concentration (MIC) (C. tropicalis ATCC 20026; ATCC 20026, 48 h) [µg/mL]	also measured
Ac-GLFDIIKKIAESF-NH2 [reference compound]	disintegrated almost completely by 4.5 h												Minimum inhibitory concentration (MIC) (C. albicans 901; C. albicans 901, fluconazole-resistant clinical isolate, RPMI 1640, 30 °C, 48 h, OD 630 nm, 80% inhibition): >128 µg/mL; Minimum inhibitory concentration (MIC) (C. albicans 904; C. albicans 904, RPMI 1640, 30 °C, 48 h, OD 630 nm, 80% inhibition): >128 µg/mL; Minimum inhibitory concentration (MIC) (C. albicans SC5314; C. albicans SC5314, RPMI 1640, 3–5 × 10^3 CFU/mL, 30 °C, 48 h, OD 630 nm, 80% inhibition): >64 µg/mL; Minimum inhibitory concentration (MIC) (C. auris 918; C. auris clinical isolate 918, RPMI 1640, 30 °C, 48 h, OD 630 nm, 80% inhibition): >128 µg/mL; Minimum inhibitory concentration (MIC) (C. auris 919; C. auris clinical isolate 919, RPMI 1640, 30 °C, 48 h, OD 630 nm, 80% inhibition): >128 µg/mL; Minimum inhibitory concentration (MIC) (C. glabrata 896; C. glabrata clinical isolate 896, RPMI 1640, 30 °C, 48 h, OD 630 nm, 80% inhibition): >128 µg/mL; Minimum inhibitory concentration (MIC) (C. glabrata ATCC 1182; C. glabrata ATCC 1182, RPMI 1640, 30 °C, 48 h, OD 630 nm, 80% inhibition): >128 µg/mL; Minimum inhibitory concentration (MIC) (C. krusei ATCC 2340; C. krusei ATCC 2340, RPMI 1640, 30 °C, 48 h, OD 630 nm, 80% inhibition): >128 µg/mL; Minimum inhibitory concentration (MIC) ([1]; C. parapsilosis ATCC 22010, RPMI 1640, 30 °C, 48 h, OD 630 nm, 80% inhibition): >128 µg/mL; Minimum inhibitory concentration (MIC) (C. tropicalis 895; C. tropicalis 895, fluconazole-resistant clinical isolate, RPMI 1640, 30 °C, 48 h, OD 630 nm, 80% inhibition): >128 µg/mL; Minimum inhibitory concentration (MIC) (C. tropicalis ATCC 20026; C. tropicalis ATCC 20026, RPMI 1640, 30 °C, 48 h, OD 630 nm, 80% inhibition): >128 µg/mL; helicity [2]: 56.6%
CC[C@H](C)[C@H](NC(=O)[C@H](CC(=O)O)NC(=O)[C@H](Cc1ccccc1)NC(=O)[C@H](CC(C)C)NC(=O)CNC(C)=O)C(=O)N[C@H](C(=O)N[C@@H](CCCCN)C(=O)N[C@@]1(C)CCCC=CCCC[C@@](C)(C(=O)N[C@@H](Cc2ccccc2)C(N)=O)NC(=O)[C@H](CCC(=O)O)NC(=O)[C@H](C)NC(=O)[C@H]([C@@H](C)CC)NC1=O)[C@@H](C)CC [Sau-8] (Ac-GLFDIIK[S5]IAE[S5]F-NH2; staple 8-12)		>128	>128	>64	>128	>128	>128	>128	>128	>128	>128	>128	
CC[C@H](C)[C@@H]1NC(=O)[C@@](C)(NC(=O)[C@H](CC(=O)O)NC(=O)[C@H](Cc2ccccc2)NC(=O)[C@H](CC(C)C)NC(=O)CNC(C)=O)CCCC=CCCC[C@@](C)(C(=O)N[C@@H](C)C(=O)N[C@@H](CCC(=O)O)C(=O)N[C@@H](CO)C(=O)N[C@@H](Cc2ccccc2)C(N)=O)NC(=O)[C@H](CCCCN)NC(=O)[C@H](CCCCN)NC1=O [Sau-5] (Ac-GLFD[S5]IKK[S5]AESF-NH2; staple 5-9)	remain relatively stable over time	>128	>128	16 (≈ 10.4 µM)	>128	>128	>128	>128	>128	>128	16 (≈ 10.4 µM)	>128	
